# From patent US9164102B2, “Methods of screening for TRPM4b modulators” (The Queen's Medical Center, priority 2002, dated 2015)
# Target: T1, TRPM4b (Homo sapiens, UniProt Q8TD43)
# T1 construct: expressed in transfected cells
# Assay: Patch-clamp recordings of TRPM4b currents in HEK-293 cells at buffered intracellular Ca2+
# Type: cell-based
# Conditions: cytosolic/intracellular Ca2+
# Protocol: Wild type and tetracycline-inducible […] Flag-TRPM4b-expressing cells were cultured at 37° C./5% CO2 in DMEM supplemented with 10% FBS and 2 mM glutamine. The medium was supplemented with blasticidin (5 μg/ml; Invitrogen) and zeocin (0.4 mg/ml; Invitrogen). Cells were resuspended in media containing 1 μg/ml tetracycline (Invitrogen) 24 hours before experiments. For patch-clamp experiments, cells were kept in a standard Ringer's solution (in mM): NaCl 145, KCl 2.8, CaCl2 1, MgCl2 2, glucose 10, Hepes.NaOH 10, pH 7.2. In some experiments, this solution was modified such that all but 1 mM of NaCl was replaced by choline-Cl (choline-based solution). In experiments where ATP was used, it was added at 1 mM of the Mg^2+ salt and extracellular Ca^2+ concentration was raised to 2 mM. The standard pipette-filling solutions contained (in mM): K-glutamate 145, NaCl 8, MgCl2 1, Cs-BAPTA 10, pH 7.2 adjusted with KOH. In some experiments, [Ca^2+]i was buffered to […] by 10 mM BAPTA and appropriate concentrations of CaCl2 or left unbuffered. For inside-out single-channel recordings, the patch was excised into a similar solution, except that KCl was used instead of K-glutamate. All reagents were purchased from Sigma and dissolved in the standard intracellular solution. […] Capacitive currents and series resistance were determined and corrected before each voltage ramp. […]
# T1 sequence (Q8TD43 whole entry): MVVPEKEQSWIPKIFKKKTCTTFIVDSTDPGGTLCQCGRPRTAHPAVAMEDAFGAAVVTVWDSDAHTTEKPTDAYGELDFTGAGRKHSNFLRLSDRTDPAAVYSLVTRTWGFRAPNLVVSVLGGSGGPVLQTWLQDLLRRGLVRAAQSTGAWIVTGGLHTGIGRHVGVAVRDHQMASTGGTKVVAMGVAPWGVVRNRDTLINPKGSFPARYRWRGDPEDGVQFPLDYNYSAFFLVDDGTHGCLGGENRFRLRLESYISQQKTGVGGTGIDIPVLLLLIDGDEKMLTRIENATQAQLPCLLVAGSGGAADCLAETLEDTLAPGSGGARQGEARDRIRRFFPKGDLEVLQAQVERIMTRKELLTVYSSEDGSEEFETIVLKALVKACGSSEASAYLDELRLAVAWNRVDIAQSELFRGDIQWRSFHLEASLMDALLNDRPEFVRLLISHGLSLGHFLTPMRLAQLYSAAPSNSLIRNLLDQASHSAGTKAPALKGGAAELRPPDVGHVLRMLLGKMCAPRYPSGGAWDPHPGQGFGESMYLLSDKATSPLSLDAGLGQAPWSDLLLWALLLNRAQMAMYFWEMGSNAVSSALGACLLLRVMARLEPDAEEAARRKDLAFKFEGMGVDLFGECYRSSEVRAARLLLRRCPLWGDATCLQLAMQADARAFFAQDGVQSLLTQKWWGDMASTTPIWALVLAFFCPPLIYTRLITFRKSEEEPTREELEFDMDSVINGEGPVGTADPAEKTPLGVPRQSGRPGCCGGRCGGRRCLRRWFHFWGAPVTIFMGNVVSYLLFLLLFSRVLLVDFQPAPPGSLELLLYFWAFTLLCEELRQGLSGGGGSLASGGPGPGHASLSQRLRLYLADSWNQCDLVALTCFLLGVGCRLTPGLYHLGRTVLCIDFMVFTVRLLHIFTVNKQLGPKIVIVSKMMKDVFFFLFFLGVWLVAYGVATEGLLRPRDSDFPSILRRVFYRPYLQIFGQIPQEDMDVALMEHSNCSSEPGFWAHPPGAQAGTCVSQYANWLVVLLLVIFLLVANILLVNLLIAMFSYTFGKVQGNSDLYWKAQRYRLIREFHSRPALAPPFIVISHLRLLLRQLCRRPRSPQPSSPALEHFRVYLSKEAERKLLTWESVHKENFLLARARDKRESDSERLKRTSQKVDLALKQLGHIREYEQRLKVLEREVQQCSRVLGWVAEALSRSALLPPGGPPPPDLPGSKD
compound,measurement,value
[Ca+2] [Ca^2+],Ca^2+ concentration at which direct gating of the TRPM4b channel appears to begin,~300 nM
